The source of these data is patent US20240352022A1, “GROUP OF IMB-C5 SERIES COMPOUNDS HAVING ANTI-CORONAVIRUS ACTIVITY AND APPLICATION THEREOF” (priority 2021, published 2024).

A short description of data set [1]: in vitro. As to conditions: human.
The test system of data set [2] is HCoV-229E. The data set is described as follows: anti-HCoV-229E activity in Huh7 cells by cytopathic effect (CPE) assay. The data set is classed as cell-based, Human coronavirus HCoV-229E. As to conditions: Human coronavirus 229E, Huh-7, HCoV-229E 100 TCID50 in Huh7 cells, about 48 h. In general terms: Protection from cytopathic effect is a common read-out in antiviral testing.

For data set [3], the system named is HCoV-229E. The data set is described as follows: N protein level of HCoV-229E in Huh7 cells (Western Blotting). The format is cell-based, Human coronavirus HCoV-229E. The conditions noted are these: MOI=1, 5 μM compound, 24 h. For orientation: Immunoblotting shows a protein as a band on a membrane.
In data set [4] the test system is HCoV-229E. Nature of the data set: anti-HCoV-229E activity in Huh7.5 cells by cytopathic effect (CPE) assay. The format is cell-based, Human coronavirus HCoV-229E. The conditions noted are these: Human coronavirus 229E, HCoV-229E 100 TCID50 in Huh7.5 cells, about 48 h.
Data set [5] in a line: in vitro. The conditions noted are these: human. The source holds these as a separate data set.

Molecules are shown by their SMILES. Some results are limits rather than exact numbers.

The EC50 is the concentration giving half of the maximal effect. A higher EC50 goes with weaker potency. In “in vitro [1]”, `Cn1c(=O)c2c(nc(NCCO)n2Cc2ccc(OC(F)F)cc2)n(C)c1=O` [IMB-2-8, 7-(4-(difluoromethoxy)benzyl)-8-((2-hydroxyethyl)amino)-1,3-dimethyl-3,7-dihydro-1H-purine-2,6-dione] displayed a CC50 greater than 200 µM. Further, the EC50 with HCoV-229E [2] came to 2.47 µM. Also, the “N protein level of HCoV-229E” value in the data set on HCoV-229E [3] is “inhibited HCoV-229E in Huh7 cells to different degrees”.

`Cn1c(=O)c2c(nc(NCCO)n2Cc2c(F)cccc2F)n(C)c1=O` [IMB-93, 7-(2,6-difluorobenzyl)-8-((2-hydroxyethyl)amino)-1,3-dimethyl-3,7-dihydro-1H-purine-2,6-dione] yielded a CC50 in “in vitro [1]” greater than 200 µM. Besides, it took 2.47 µM to reach a half-maximal effect in the data set with HCoV-229E [2] (EC50). Besides, the “N protein level of HCoV-229E” value in the data set with HCoV-229E [3] is “inhibited HCoV-229E in Huh7 cells to different degrees”.

Regarding `COc1cccc(Cn2c(N[C@@H](CO)C(C)C)nc3c2c(=O)n(C)c(=O)n3C)c1` [IMB-ZH-12, (R)-8-((1-hydroxy-3-methylbutan-2-yl)amino)-7-(3-methoxybenzyl)-1,3-dimethyl-3,7-dihydro-1H-purine-2,6-dione], the 50% effective concentration (EC50) in the data set on HCoV-229E [4] and in the data set on HCoV-229E [2] was 59.9 µM in each case. In addition, the CC50 in “in vitro [1]” and in the data set “in vitro [5]” was greater than 125 µM in each case.

For the molecule `COc1cccc(Cn2c(N[C@@H](C)CO)nc3c2c(=O)n(C)c(=O)n3C)c1` [IMB-ZH-2, (S)-8-((1-hydroxypropan-2-yl)amino)-7-(3-methoxybenzyl)-1,3-dimethyl-3,7-dihydro-1H-purine-2,6-dione], the values for the EC50 with HCoV-229E [4] and in the data set on HCoV-229E [2] were 82.9 µM and 44.7 µM, respectively. The CC50 in “in vitro [1]” and in the data set “in vitro [5]” was greater than 134 µM each time.

`Cn1c(=O)c2c(nc(NCCO)n2Cc2cccc(OC(F)(F)F)c2)n(C)c1=O` [IMB-92, 8-((2-hydroxyethyl)amino)-1,3-dimethyl-7-(3-(trifluoromethoxy)benzyl)-3,7-dihydro-1H-purine-2,6-dione]: in “in vitro [1]”, the CC50 came to 144 µM. The 50% effective concentration (EC50) in the data set with HCoV-229E [2] was 0.64 µM. In the data set with HCoV-229E [3], the “N protein level of HCoV-229E” value is “inhibited HCoV-229E in Huh7 cells to different degrees”.

On to `Cc1ccccc1Cn1c(NCCO)nc2c1c(=O)n(C)c(=O)n2C` [IMB-68, 8-((2-hydroxyethyl)amino)-1,3-dimethyl-7-(2-methylbenzyl)-3,7-dihydro-1H-purine-2,6-dione], for which the CC50 in “in vitro [1]” was 200 µM. Besides, the EC50 in the data set on HCoV-229E [2] was 1.43 µM. Besides, the “N protein level of HCoV-229E” value in the data set with HCoV-229E [3] is “inhibited HCoV-229E in Huh7 cells to different degrees”.

With `CC(C)C(=O)OC[C@H]1O[C@@H](n2ccc(NO)nc2=O)[C@H](O)[C@@H]1O` [Molnupiravir, reference compound], the concentration for a half-maximal effect (EC50) was determined as 4.28 µM in the data set on HCoV-229E [4] and 1.92 µM in the data set on HCoV-229E [2]. The CC50 in “in vitro [1]” and in “in vitro [5]” was greater than 200 µM throughout.

In the case of `COCCNc1nc2c(c(=O)n(C)c(=O)n2C)n1Cc1cccc(OC)c1` [IMB-ZH-10, 7-(3-methoxybenzyl)-8-((2-methoxyethyl)amino)-1,3-dimethyl-3,7-dihydro-1H-purine-2,6-dione], the EC50 in the data set on HCoV-229E [4] was determined as 19 µM; with HCoV-229E [2], 8.6 µM. Also, the CC50 in “in vitro [1]” and in the data set “in vitro [5]” was greater than 134 µM throughout.

In the case of `Cn1c(=O)c2c(nc(NCCO)n2CC2CCOCC2)n(C)c1=O` [IMB-3-19, ((2-hydroxyethyl)amino)-1,3-dimethyl-7-((tetrahydro-2H-pyran-4-yl)methyl)-3,7-dihydro-1H-purine-2,6-dione], the CC50 in “in vitro [1]” is greater than 200 µM. In the data set with HCoV-229E [2], the EC50 is 1.88 µM. Besides, the “N protein level of HCoV-229E” value with HCoV-229E [3] is on record as “inhibited HCoV-229E in Huh7 cells to different degrees”.

The molecule `Cn1c(=O)c2c(nc(NCCO)n2Cc2ccc(Cl)cc2)n(C)c1=O` [IMB-2-14] showed a CC50 in “in vitro [1]” of 200 µM. This molecule also had an EC50 in the data set on HCoV-229E [2] of 1.43 µM. Also, the “N protein level of HCoV-229E” value in the data set with HCoV-229E [3] is “inhibited HCoV-229E in Huh7 cells to different degrees”.

Consider `Cn1c(=O)c2c(nc(NCCO)n2Cc2ccccc2)n(C)c1=O` [IMB-ZHB-13x, 7-benzyl-8-((2-hydroxyethyl)amino)-1,3-dimethyl-3,7-dihydro-1H-purine-2,6-dione], for which the EC50 was 38.5 µM in the data set with HCoV-229E [4] and 5.62 µM with HCoV-229E [2]. In addition, the CC50 in “in vitro [1]” and in the data set “in vitro [5]” was greater than 152 µM in each case.

Consider `Cn1c(=O)c2c(nc(NCCO)n2Cc2cccc(Cl)c2F)n(C)c1=O` [IMB-ZHB-4x, 7-(3-chloro-2-fluorobenzyl)-8-((2-hydroxyethyl)amino)-1,3-dimethyl-3,7-dihydro-1H-purine-2,6-dione], for which the concentration for a half-maximal effect (EC50) was found to be 8.42 µM in the data set on HCoV-229E [4] and 3.78 µM in the data set on HCoV-229E [2]. For the same molecule, the CC50 in “in vitro [1]” and in “in vitro [5]” was 91 µM each time.

Regarding `COC(=O)CNc1nc2c(c(=O)n(C)c(=O)n2C)n1Cc1cccc(OC)c1` [IMB-ZHC-2, methyl(7-(3-methoxybenzyl)-1,3-dimethyl-2,6-dioxo-2,3,6,7-tetrahydro-1H-purin-8-yl)glycinate], the EC50 with HCoV-229E [4] worked out at 43.1 µM; with HCoV-229E [2] it was 28.7 µM. Moreover, the CC50 in “in vitro [1]” and in “in vitro [5]” was greater than 129 µM in each case.

Regarding `Cn1c(=O)c2c(nc(NCCO)n2Cc2ccc(OC(F)(F)F)cc2)n(C)c1=O` [IMB-2-3, 8-((2-hydroxyethyl)amino)-1,3-dimethyl-7-(4-(trifluoromethoxy)benzyl)-3,7-dihydro-1H-purine-2,6-dione], the values for the 50% effective concentration (EC50) with HCoV-229E [4] and in the data set on HCoV-229E [2] were 4.79 µM and 11.4 µM, respectively. Also, the CC50 in the data set “in vitro [1]” and in “in vitro [5]” was greater than 242 µM in each case.

On to `Cn1c(=O)c2c(nc(NCCO)n2Cc2cccc(Cl)c2)n(C)c1=O` [IMB-2-5, 7-(3-chlorobenzyl)-8-((2-hydroxyethyl)amino)-1,3-dimethyl-3,7-dihydro-1H-purine-2,6-dione], for which the CC50 in “in vitro [1]” turned out to be 200 µM. For the same molecule, the response with HCoV-229E [2] was half-maximal at 1.33 µM (EC50). In addition, in the data set on HCoV-229E [3], the “N protein level of HCoV-229E” value is recorded as “inhibited HCoV-229E in Huh7 cells to different degrees”.

On to `COc1cccc(Cn2c(NC[C@@H](C)O)nc3c2c(=O)n(C)c(=O)n3C)c1` [IMB-ZHC-6, (R)-8-((2-hydroxypropyl)amino)-7-(3-methoxybenzyl)-1,3-dimethyl-3,7-dihydro-1H-purine-2,6-dione], for which the figures for the half-maximal effective concentration (EC50) in the data set with HCoV-229E [4] and in the data set with HCoV-229E [2] were 58.8 µM and 12.6 µM, respectively. Moreover, the CC50 in “in vitro [1]” and in “in vitro [5]” was greater than 134 µM in each case.

As for `COc1cccc(Cn2c(NCC(N)=O)nc3c2c(=O)n(C)c(=O)n3C)c1` [IMB-ZHC-15, ((7-(3-methoxybenzyl)-1,3-dimethyl-2,6-dioxo-2,3,6,7-tetrahydro-1H-purin-8-yl)amino)acetamide], the EC50 in the data set on HCoV-229E [4] is 58.9 µM; in the data set on HCoV-229E [2] it was 44.8 µM. Moreover, the CC50 in the data set “in vitro [1]” and in the data set “in vitro [5]” was greater than 134 µM each time.
